Measured values reported in patent US20110105515A1, “TARGETING THE ONCOPROTEIN NUCLEOPHOSMIN” (President and Fellows of Harvard College, priority 2007, published 2011).

How the values were obtained:
[1] = tested on: UACC-257; conditions: UACC-257 (Melanoma), 48 hours, SRB
[2] = tested on: HCT-15; conditions: HCT-15 (Colon Cancer), 48 hours, SRB
[3] = tested on: PC-3; conditions: PC-3 (Prostate Cancer), 48 hours, SRB
[4] = tested on: M14; conditions: M14 (Melanoma), 48 hours, SRB
[5] = tested on: BT-549; conditions: BT-549 (Breast Cancer), 48 hours, SRB
[6] = tested on: U251; conditions: U251 (CNS Cancer), 48 hours, SRB
[7] = tested on: SN12C; conditions: SN12C (Renal Cancer), 48 hours, SRB
[8] = tested on: SF-539; conditions: SF-539 (CNS Cancer), 48 hours, SRB
[9] = tested on: DU-145; conditions: DU-145 (Prostate Cancer), 48 hours, SRB
[10] = tested on: 786-0; conditions: 786-0 (Renal Cancer), 48 hours, SRB
[11] = tested on: HCC-2998; conditions: HCC-2998 (Colon Cancer), 48 hours, SRB
[12] = tested on: MDA-MB-468; conditions: MDA-MB-468 (Breast Cancer), 48 hours, SRB
[13] = tested on: HS578T; conditions: HS578T (Breast Cancer), 48 hours, SRB
[14] = tested on: RXF 393; conditions: RXF 393 (Renal Cancer), 48 hours, SRB
[15] = tested on: SF-295; conditions: SF-295 (CNS Cancer), 48 hours, SRB
[16] = tested on: T-47D; conditions: T-47D (Breast Cancer), 48 hours, SRB
[17] = tested on: MDA-MB-435; conditions: MDA-MB-435 (Breast Cancer), 48 hours, SRB
[18] = tested on: NCI-H460; conditions: NCI-H460 (Non-Small Cell Lung Cancer), 48 hours, SRB
[19] = tested on: MOLT-4; conditions: MOLT-4 (Leukemia), 48 hours, SRB
[20] = tested on: MCF7; conditions: MCF7 (Breast Cancer), 48 hours, SRB
[21] = tested on: HL-60(TB); conditions: HL-60(TB) (Leukemia), 48 hours, SRB
[22] = tested on: HCT-116; conditions: HCT-116 (Colon Cancer), 48 hours, SRB
[23] = tested on: LOX IMVI; conditions: LOX IMVI (Melanoma), 48 hours, SRB
[24] = tested on: COLO 205; conditions: COLO 205 (Colon Cancer), 48 hours, SRB
[25] = tested on: OVCAR-4; conditions: OVCAR-4 (Ovarian Cancer), 48 hours, SRB
[26] = tested on: SNB-19; conditions: SNB-19 (CNS Cancer), 48 hours, SRB
[27] = tested on: NCI/ADR-RES; conditions: NCI/ADR-RES (Breast Cancer), 48 hours, SRB
[28] = tested on: OVCAR-8; conditions: OVCAR-8 (Ovarian Cancer), 48 hours, SRB
[29] = tested on: UO-31; conditions: UO-31 (Renal Cancer), 48 hours, SRB
[30] = tested on: NCI-H522; conditions: NCI-H522 (Non-Small Cell Lung Cancer), 48 hours, SRB
[31] = tested on: SW-620; conditions: SW-620 (Colon Cancer), 48 hours, SRB
[32] = tested on: SR; conditions: SR (Leukemia), 48 hours, SRB

For [2H]On1c2c(c3ccc4c(c31)C=CC(C)(C)O4)C(OC([2H])([2H])[2H])[C@@]13NC(=O)C4(CCCN4C1=O)CC3C2(C)C (some centres unmarked) [Deuterated Methanol Adduct], which TGI [1] is on record?
The TGI was 1890 nM.

And the TGI [2]?
The TGI was 1770 nM.

What about the TGI [3] of the same compound?
Its TGI is 2020 nM.

And the TGI [4]?
Its TGI is 2500 nM.

What about the TGI [5] of the same compound?
Its TGI is 1990 nM.

And the TGI [6]?
The TGI was 1370 nM.

And the TGI [7]?
Its TGI is 2320 nM.

What about the TGI [8] of the same compound?
The TGI was 1460 nM.

And the TGI [9]?
Its TGI is 3120 nM.

What about the TGI [10] of the same compound?
The TGI was 2460 nM.

And the TGI [11]?
The TGI was 2010 nM.

What about the TGI [12] of the same compound?
The TGI was 1780 nM.

What about the TGI [13] of the same compound?
The TGI was 2170 nM.

What about the TGI [14] of the same compound?
The TGI was 625 nM.

What about the TGI [15] of the same compound?
The TGI was 2730 nM.

And the TGI [16]?
Its TGI is 1380 nM.

And the TGI [17]?
Its TGI is 1770 nM.

What about the TGI [18] of the same compound?
The TGI was 3600 nM.

What about the TGI [19] of the same compound?
Its TGI is 1380 nM.

What about the TGI [20] of the same compound?
Its TGI is 1330 nM.

What about the TGI [21] of the same compound?
The TGI was 1450 nM.

What about the TGI [22] of the same compound?
The TGI was 1970 nM.

What about the TGI [23] of the same compound?
Its TGI is 2140 nM.

What about the TGI [24] of the same compound?
Its TGI is 1450 nM.

And the TGI [25]?
Its TGI is 1630 nM.

What about the TGI [26] of the same compound?
Its TGI is 2310 nM.

What about the TGI [27] of the same compound?
The TGI was 9950 nM.

What about the TGI [28] of the same compound?
The TGI was 2170 nM.

And the TGI [29]?
Its TGI is 1840 nM.

And the TGI [30]?
The TGI was 1800 nM.

And the TGI [31]?
The TGI was 1540 nM.

And the TGI [32]?
Its TGI is 1250 nM.
